As a reminder, the EC50 is the concentration at which the effect is half-maximal.

We go through four substances from PMC5913127 (Scientific Reports, 2018).

In one data set the test system is aducanumab. Briefly: ELISA of aducanumab on plates coated with truncated Aβ peptides. The following applies: for EC50: aducanumab on peptide coated or captured at 5 μg/mL (multivalent effects), antibody from 100 nM, 2 h room temperature, read-out: Binding activity (EC50); for Fold reduction (relative to Aβ1-42): reduction of aducanumab binding affinity, peptide 5 μg/mL. Type of data set: binding, human. Here is the method:
For N-terminally truncated Aβ peptides, untagged peptides were used. For ELISA, 96-well microplates were coated with 5 μg/mL peptide in Coating Buffer (15 mM Na2CO3, 35 mM NaHCO3, pH 9.6) overnight at 4 °C. Plates were washed and non-specific binding sites were blocked with 2% BSA in PBS for 1 h at 25 °C. Serially diluted antibody starting from 100 nM in Assay Buffer (2% BSA in PBS) was added, and the plates were incubated for 2 h at room temperature. Binding was determined by incubation with an HRP-conjugated goat anti-human polyclonal antibody (Jackson ImmunoResearch) followed by measurement of HRP activity using Ultra TMB ELISA Colorimetric Substrate Solution (Thermo Fisher Scientific). For C-terminally truncated Aβ peptides, biotin-conjugated peptides were used. The biotin was attached synthetically to the C terminus of the protein by incorporation of a non-native lysine residue. For ELISA, biotin-conjugated peptides were incubated for 1 h at room temperature, at a concentration of 5 μg/mL in Assay Buffer, using plates that were pre-coated with neutravidin (Thermo Fisher Scientific, Reacti-Bind plates). Plates were washed, antibodies diluted serially in Assay Buffer were added, and binding was measured as described above.

The next data set has as its system Aβ (Monomer, Aggregate). The conditions noted are these: A = aggregate, M = monomer; ref [9]–[19],[54] as given per antibody in column Ref. of Table 1; cited from earlier work.

Some results are limits rather than exact numbers.

As to “5–42: untagged N-terminally truncated Aβ peptide”, in the data set on aducanumab, the EC50 was found to be 36 nM and the “Fold reduction (relative to Aβ1-42)” value is reported as 96 fold. Also, in the data set on aducanumab (listed as Aβ5-42), the “Fold reduction (relative to Aβ1-42)” value is given as > 40 fold.
“6–42: untagged N-terminally truncated Aβ peptide”: in the data set on aducanumab, the EC50 was found to be 140 nM and the “Fold reduction (relative to Aβ1-42)” value came to 390 fold.
In the same order, the values of “8–42: untagged N-terminally truncated Aβ peptide” are 150 nM and 400 fold.
On to “solanezumab: anti-Aβ clinical candidate antibody; mouse analog m266”, for which, in the data set on Aβ (Monomer, Aggregate), the “Aβ selectivity (Monomer, Aggregate)” value was “M ≫ A”.
